This passage reports Activity, KB and K results from ChEMBL document CHEMBL4627339, “Structural motives controlling the binding affinity of 9,10-bis(methylpyridinium)anthracenes towards DNA” (Bioorg Med Chem, 2020).

What all share (type): nucleic-acid assay
Assay [1] relates to Calf thymus DNA. Briefly: Binding affinity to calf thymus DNA assessed as bathochromic shift in maximum absorption at 50 uM by UV-Vis absorption spectroscopic method. Particulars: Bos taurus.
Assay [2] relates to Calf thymus DNA. Kind of assay: Binding affinity to calf thymus DNA assessed as hypochromism at 50 uM by UV-Vis spectroscopy relative to control. The settings on record: Bos taurus.
Assay [3] relates to Calf thymus DNA. Kind of assay: Binding affinity to calf thymus DNA assessed as binding constant by UV-Vis absorption spectroscopic method. The settings on record: Bos taurus.
The subject of assay [4] is Calf thymus DNA. Kind of assay: Binding affinity to calf thymus DNA assessed as groove binding by measuring induced circular dichroism with negative signs around 370-380 nm by CD spectroscopy. Particulars: Bos taurus. On the technique in general: Circular dichroism is widely used to follow secondary structure.
Assay [5] deals with Poly(dA-dT)oligonucleotide. Briefly: Binding affinity to poly(dA:dT) dsDNA (unknown origin) assessed as increase in fluorescence intensity by fluorescence spectroscopy.
Assay [6] has as its system Calf thymus DNA. Briefly: Binding affinity to calf thymus DNA assessed as groove binding by measuring blue-shift in maximum emission intensity of compound by fluorescence spectroscopy. Particulars: Bos taurus.
For assay [7], the system named is Poly(dG-dC)oligonucleotide. Kind of assay: Binding affinity to poly(dG:dC) dsDNA (unknown origin) assessed as increase in fluorescence intensity by fluorescence spectroscopy.
Assay [8] has as its system Poly(dA-dT)oligonucleotide. Briefly: Binding affinity to poly(dA:dT) dsDNA (unknown origin) assessed as increase in intensity with one ligand binding for two base pairs by UV-Vis spectroscopy.
Assay [9] relates to Poly(dG-dC)oligonucleotide. Briefly: Binding affinity to poly(dG:dC) dsDNA (unknown origin) assessed as red shift in absorption maxima by UV-Vis spectroscopy.
Assay [10] concerns Poly(dA-dT)oligonucleotide. Kind of assay: Binding affinity to poly(dA:dT) dsDNA (unknown origin) assessed as binding constant by fluorescence spectroscopy.
Assay [11] deals with Poly(dA-dT)oligonucleotide. Briefly: Binding affinity to poly(dA:dT) dsDNA (unknown origin) assessed as red shift in absorption maxima by UV-Vis spectroscopy.
Assay [12] concerns Calf thymus DNA. Kind of assay: Binding affinity to calf thymus DNA assessed as groove binding by measuring spectral changes up to compound:base pair concentration ratio of 1:39 in presence of 300 mM NaCl by UV-Vis spectroscopic method. Particulars: Bos taurus.
The subject of assay [13] is Calf thymus DNA. Kind of assay: Binding affinity to calf thymus DNA assessed as loss of vibronic fine structure at 50 uM by UV-Vis absorption spectroscopic method. Particulars: Bos taurus.
Assay [14] relates to Calf thymus DNA. Kind of assay: Binding affinity to calf thymus DNA assessed as DNA intercalation by measuring helix stabilization by DNA melting studies based absorbance analysis. Particulars: Bos taurus.
Assay [15] concerns Calf thymus DNA. Kind of assay: Binding affinity to calf thymus DNA assessed as minor groove binding by measuring rise in absorbance at melting temperature between 76 and 77 degC by DNA melting studies based absorbance analysis. Particulars: Bos taurus.

Molecules are shown by their SMILES. Active and inactive are the calls of the source. The calls are words filed in the database; no cut-off is given here.

In the case of `c1ccc2c(-c3ccncc3)c3ccccc3c(-c3ccncc3)c2c1`, in the assay with Calf thymus DNA [1], the outcome was inactive.

On to `C[n+]1ccc(-c2c3ccccc3c(-c3cc[n+](C)cc3)c3ccccc23)cc1`, for which the result (in the assay on Calf thymus DNA [1]; in the assay on Calf thymus DNA [4]; in assay [5]; in the assay with Calf thymus DNA [6]; in [8]; in assay [11]) was Active. Also, the outcome with Calf thymus DNA [12], in the assay on Calf thymus DNA [13] and in the assay with Calf thymus DNA [15] was Active. The Activity with Calf thymus DNA [2] is 74%. Moreover, in the assay on Calf thymus DNA [3], the KB amounted to 8.4 ×10⁴ /M. In addition, the outcome (in assay [7]; in assay [9]; in the assay on Calf thymus DNA [14]) was inactive. Also, in assay [10], the K amounted to 1.6 ×10⁵ /M.

For the molecule `Cc1ccc2c(-c3cc[n+](C)cc3)c3ccccc3c(-c3cc[n+](C)cc3)c2c1`, the outcome (in the assay with Calf thymus DNA [1]; in the assay on Calf thymus DNA [4]; in [5]; with Calf thymus DNA [6]; in the assay with Calf thymus DNA [15]) was Active. In the assay with Calf thymus DNA [2], the Activity turned out to be 41%. In addition, in the assay on Calf thymus DNA [3], the KB is 6.2 ×10⁴ /M. Further, in [10], the K was found to be 1 ×10⁵ /M. Also, in the assay on Calf thymus DNA [14], the outcome was inactive.

For the molecule `CCc1ccc2c(-c3cc[n+](C)cc3)c3ccccc3c(-c3cc[n+](C)cc3)c2c1`, the result (in the assay on Calf thymus DNA [1]; in the assay with Calf thymus DNA [4]; in [5]; with Calf thymus DNA [6]; in the assay with Calf thymus DNA [15]) was Active. In the assay on Calf thymus DNA [2], the Activity amounted to 55%. For the same molecule, the KB in the assay on Calf thymus DNA [3] was found to be 1.2 ×10⁴ /M. Moreover, the outcome in the assay on Calf thymus DNA [14] was inactive.

Take `C[n+]1cccc(-c2c3ccccc3c(-c3ccc[n+](C)c3)c3ccccc23)c1`: the outcome (in the assay with Calf thymus DNA [1]; with Calf thymus DNA [4]; in [5]; with Calf thymus DNA [6]; in the assay with Calf thymus DNA [15]) was Active. Further, the Activity in the assay on Calf thymus DNA [2] turned out to be 41%. Also, the KB in the assay on Calf thymus DNA [3] is 1.8 ×10⁵ /M. Also, the result with Calf thymus DNA [14] was inactive.

Turning to `C[n+]1cc(-c2c3ccccc3c(-c3cc4ccccc4[n+](C)c3)c3ccccc23)cc2ccccc21`, the result (with Calf thymus DNA [1]; in the assay with Calf thymus DNA [4]; in [5]; in the assay with Calf thymus DNA [6]; in the assay with Calf thymus DNA [15]) was Active. In addition, the Activity in the assay with Calf thymus DNA [2] is 56%. Besides, the KB in the assay on Calf thymus DNA [3] stood at 2.8 ×10⁵ /M. The result in the assay on Calf thymus DNA [14] was inactive.

On to `C[n+]1ccc(-c2c3ccccc3c(-c3cc[n+](C)cc3)c3cc(C(C)(C)C)ccc23)cc1`, for which the outcome (in the assay on Calf thymus DNA [1]; in assay [5]; in the assay on Calf thymus DNA [6]; in the assay on Calf thymus DNA [15]) was Active. Moreover, the Activity in the assay with Calf thymus DNA [2] was 66%. Also, the KB in the assay with Calf thymus DNA [3] came to 7.3 ×10³ /M. Besides, the result with Calf thymus DNA [4] and in the assay on Calf thymus DNA [14] was inactive.

In the case of `C[n+]1ccccc1-c1c2ccccc2c(-c2cccc[n+]2C)c2ccccc12`, the result (in the assay on Calf thymus DNA [1]; with Calf thymus DNA [4]; in [5]; with Calf thymus DNA [6]) was inactive.
